Calls of active or inactive are those of the source.
Experiments:
Assay type in all cases: functional
[1] = target: T1, High affinity choline transporter 1 (Homo sapiens, UniProt Q9GZV3); test: human choline transporter blockers, potency – cell-based, 5-point CRC, membrane potential dye, dose response (AID 504840)
T1 sequence (Q9GZV3 whole entry): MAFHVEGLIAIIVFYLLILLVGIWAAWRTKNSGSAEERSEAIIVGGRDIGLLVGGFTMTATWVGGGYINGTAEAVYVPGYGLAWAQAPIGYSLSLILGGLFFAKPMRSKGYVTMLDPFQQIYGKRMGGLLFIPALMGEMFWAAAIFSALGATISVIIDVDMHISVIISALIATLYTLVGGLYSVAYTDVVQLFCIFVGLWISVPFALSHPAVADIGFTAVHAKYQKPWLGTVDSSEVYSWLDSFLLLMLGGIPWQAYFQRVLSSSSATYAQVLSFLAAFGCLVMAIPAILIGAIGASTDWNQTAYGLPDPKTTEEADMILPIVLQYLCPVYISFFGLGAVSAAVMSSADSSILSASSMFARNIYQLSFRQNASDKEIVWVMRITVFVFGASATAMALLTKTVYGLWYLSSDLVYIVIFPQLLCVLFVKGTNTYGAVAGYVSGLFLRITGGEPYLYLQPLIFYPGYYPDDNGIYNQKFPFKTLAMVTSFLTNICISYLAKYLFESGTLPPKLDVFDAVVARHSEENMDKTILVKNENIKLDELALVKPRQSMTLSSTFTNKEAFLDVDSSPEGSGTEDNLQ

[2] = target: T1, High affinity choline transporter 1; test: human choline transporter blockers, potency – cell-based, 10-point CRC, membrane potential dye, dose response (AID 588401);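 note: membrane potential dye fluorescence of choline-evoked depolarization via CHT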
[3] = target: Benomyl/methotrexate resistance protein (Candida albicans, UniProt P28873); test: Candida albicans Mdr1 pump inhibition curves – singleplex, Cherry Pick1 hits, dose response (AID 588608)
[4] = target: T2, Multidrug resistance protein CDR2 (Candida albicans (strain SC5314 / ATCC MYA-2876) (Yeast), UniProt P78595); test: blockers of Nile Red efflux by Candida CDR2 – S. cerevisiae AD1-8u, singleplex, Cherry Pick2 set, dose response (AID 623994); conditions: read-out: EC50_MICROM
T2 sequence (P78595 whole entry): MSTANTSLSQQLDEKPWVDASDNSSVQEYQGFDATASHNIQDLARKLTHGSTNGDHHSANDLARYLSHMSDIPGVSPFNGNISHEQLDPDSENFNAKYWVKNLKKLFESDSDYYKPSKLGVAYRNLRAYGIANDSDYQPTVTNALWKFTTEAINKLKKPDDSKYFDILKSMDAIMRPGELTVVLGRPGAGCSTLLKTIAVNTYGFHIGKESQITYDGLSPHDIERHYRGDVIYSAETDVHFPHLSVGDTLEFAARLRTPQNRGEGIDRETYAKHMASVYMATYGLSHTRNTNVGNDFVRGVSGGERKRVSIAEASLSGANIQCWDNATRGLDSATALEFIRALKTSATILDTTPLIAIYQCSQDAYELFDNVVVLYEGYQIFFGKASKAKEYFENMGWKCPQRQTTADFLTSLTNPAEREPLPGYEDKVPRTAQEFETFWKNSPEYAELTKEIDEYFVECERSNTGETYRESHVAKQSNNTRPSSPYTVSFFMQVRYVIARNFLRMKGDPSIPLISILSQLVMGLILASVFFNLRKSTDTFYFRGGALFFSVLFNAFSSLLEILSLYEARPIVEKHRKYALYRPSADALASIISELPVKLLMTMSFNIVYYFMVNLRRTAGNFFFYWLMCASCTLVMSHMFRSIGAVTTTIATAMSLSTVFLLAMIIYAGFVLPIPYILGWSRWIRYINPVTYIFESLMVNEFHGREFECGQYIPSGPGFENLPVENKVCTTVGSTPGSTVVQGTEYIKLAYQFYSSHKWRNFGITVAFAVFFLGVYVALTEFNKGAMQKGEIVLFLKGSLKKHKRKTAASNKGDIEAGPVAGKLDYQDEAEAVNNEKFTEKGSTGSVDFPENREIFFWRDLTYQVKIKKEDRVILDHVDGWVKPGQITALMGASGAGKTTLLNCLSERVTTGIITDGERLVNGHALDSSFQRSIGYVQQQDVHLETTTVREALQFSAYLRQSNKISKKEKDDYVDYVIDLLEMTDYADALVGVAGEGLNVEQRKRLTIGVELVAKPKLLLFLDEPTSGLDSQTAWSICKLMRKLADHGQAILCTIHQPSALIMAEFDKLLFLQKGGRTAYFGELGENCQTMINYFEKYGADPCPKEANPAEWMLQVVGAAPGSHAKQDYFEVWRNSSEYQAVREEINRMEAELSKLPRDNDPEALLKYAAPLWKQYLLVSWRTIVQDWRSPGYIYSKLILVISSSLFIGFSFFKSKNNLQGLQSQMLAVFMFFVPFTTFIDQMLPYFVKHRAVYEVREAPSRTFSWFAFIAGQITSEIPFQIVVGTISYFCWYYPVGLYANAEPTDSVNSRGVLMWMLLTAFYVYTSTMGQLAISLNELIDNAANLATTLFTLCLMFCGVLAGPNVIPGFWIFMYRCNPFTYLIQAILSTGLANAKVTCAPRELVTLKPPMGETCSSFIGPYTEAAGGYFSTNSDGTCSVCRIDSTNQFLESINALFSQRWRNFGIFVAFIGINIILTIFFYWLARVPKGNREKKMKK

[5] = target: T3, Multidrug resistance protein CDR1 (Candida albicans, UniProt P43071); test: Candida albicans Cdr1 pump inhibition curves – singleplex, Cherry Pick2 set, dose response (AID 623996); conditions: read-out: EC50_MICROM
[6] = target: T2, Multidrug resistance protein CDR2; test: inhibition of Nile Red efflux via Candida CDR2 – S. cerevisiae AD1-8u, singleplex, Cherry Pick1 hits, dose response (AID 588604)
[7] = target: T3, Multidrug resistance protein CDR1; test: inhibition of Nile Red efflux via Candida CDR1 – S. cerevisiae AD1-8u, singleplex, Cherry Pick1 hits, dose response (AID 588606)

T3 sequence (P43071 whole entry, looked up): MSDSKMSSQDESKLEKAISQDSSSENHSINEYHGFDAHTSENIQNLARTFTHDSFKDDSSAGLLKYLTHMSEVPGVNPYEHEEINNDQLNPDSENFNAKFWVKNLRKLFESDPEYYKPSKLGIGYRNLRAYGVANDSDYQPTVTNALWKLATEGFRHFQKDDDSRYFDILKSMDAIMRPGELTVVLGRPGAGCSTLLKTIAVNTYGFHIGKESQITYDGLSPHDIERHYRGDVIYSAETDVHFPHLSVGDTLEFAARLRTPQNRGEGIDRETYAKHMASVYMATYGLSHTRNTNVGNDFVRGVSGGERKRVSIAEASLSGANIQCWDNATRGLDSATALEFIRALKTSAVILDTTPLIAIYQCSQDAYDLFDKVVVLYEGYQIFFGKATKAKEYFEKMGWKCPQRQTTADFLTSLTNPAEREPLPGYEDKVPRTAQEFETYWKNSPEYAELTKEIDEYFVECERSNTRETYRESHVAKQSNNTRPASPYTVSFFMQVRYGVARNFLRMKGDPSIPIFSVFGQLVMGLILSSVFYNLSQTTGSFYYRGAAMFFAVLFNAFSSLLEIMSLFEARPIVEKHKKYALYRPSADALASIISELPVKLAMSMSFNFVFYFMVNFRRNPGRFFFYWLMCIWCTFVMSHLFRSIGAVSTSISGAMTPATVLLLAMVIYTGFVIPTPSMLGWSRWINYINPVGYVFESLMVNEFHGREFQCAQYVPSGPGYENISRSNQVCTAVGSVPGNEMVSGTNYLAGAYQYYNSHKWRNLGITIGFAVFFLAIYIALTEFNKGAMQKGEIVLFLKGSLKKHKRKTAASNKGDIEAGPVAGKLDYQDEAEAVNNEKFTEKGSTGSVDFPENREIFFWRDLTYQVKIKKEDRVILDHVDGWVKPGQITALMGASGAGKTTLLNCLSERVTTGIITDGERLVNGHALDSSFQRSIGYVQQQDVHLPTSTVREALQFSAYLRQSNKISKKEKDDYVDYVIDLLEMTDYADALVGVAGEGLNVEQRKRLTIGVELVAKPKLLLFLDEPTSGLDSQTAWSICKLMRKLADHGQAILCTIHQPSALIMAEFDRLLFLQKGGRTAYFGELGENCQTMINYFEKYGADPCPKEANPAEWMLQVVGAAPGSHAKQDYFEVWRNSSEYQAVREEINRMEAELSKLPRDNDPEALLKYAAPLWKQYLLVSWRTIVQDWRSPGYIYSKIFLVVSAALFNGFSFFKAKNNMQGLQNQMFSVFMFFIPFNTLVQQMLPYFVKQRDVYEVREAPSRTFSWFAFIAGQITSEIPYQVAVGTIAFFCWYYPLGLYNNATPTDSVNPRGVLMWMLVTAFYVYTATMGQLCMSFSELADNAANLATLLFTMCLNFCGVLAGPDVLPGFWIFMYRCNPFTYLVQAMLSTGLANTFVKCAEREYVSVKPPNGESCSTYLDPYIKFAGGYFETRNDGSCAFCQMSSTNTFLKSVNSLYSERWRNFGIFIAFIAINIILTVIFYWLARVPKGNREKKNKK
Benomyl/methotrexate resistance protein, sequence (P28873 whole entry): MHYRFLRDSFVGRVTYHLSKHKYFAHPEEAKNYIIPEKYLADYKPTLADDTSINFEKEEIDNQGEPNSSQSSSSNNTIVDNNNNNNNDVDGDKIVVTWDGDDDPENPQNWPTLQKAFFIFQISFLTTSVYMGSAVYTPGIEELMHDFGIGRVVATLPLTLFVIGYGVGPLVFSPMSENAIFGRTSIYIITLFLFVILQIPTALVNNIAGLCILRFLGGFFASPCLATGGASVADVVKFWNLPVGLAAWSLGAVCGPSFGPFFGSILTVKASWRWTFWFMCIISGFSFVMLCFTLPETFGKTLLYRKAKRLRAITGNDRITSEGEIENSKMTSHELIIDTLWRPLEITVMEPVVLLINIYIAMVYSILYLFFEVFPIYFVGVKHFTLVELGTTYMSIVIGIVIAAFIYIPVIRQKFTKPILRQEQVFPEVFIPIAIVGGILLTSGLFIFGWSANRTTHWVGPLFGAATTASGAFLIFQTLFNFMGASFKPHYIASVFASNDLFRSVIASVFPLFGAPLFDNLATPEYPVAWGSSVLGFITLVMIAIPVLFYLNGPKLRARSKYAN

CCOCCCNS(=O)(=O)c1ccc(NC(=O)c2ccc([N+](=O)[O-])cc2Cl)cc1
active: IC50 [1] 1.45 µM | IC50 [2] 0.501 µM

COc1ccc2sc(-c3ccccc3OC)c(-c3ccc(OCCN(C)C)cc3)c2c1
active: EC50 [3] 10.5 µM | EC50 [4] 5.43 µM | EC50 [5] 20.1 µM | EC50 [6] 10.2 µM | EC50 [7] 13.3 µM

Reference: ChEMBL document CHEMBL1201862, “PubChem BioAssay data set” (2004)
